Target: T1, ASGPR (Homo sapiens, UniProt P07306)
T1 sequence (P07306 1-291): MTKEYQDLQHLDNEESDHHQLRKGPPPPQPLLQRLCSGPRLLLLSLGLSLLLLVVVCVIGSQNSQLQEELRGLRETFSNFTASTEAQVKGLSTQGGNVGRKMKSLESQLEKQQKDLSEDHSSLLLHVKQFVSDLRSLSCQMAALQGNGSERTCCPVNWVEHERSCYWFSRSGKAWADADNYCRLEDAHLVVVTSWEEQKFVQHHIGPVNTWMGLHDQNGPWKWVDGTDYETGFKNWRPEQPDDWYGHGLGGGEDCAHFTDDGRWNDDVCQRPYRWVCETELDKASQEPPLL
Assay: Binding of targeting ligand formats to ASGPR
Settings: read-out: dissociation constants (Kd)
Excerpt: In this example, multiple targeting ligand formats with varying affinities to ASGPR and off target receptors were compared. […] The high degree of over modification refers to modifying each Fab with more than 1 SATA molecule leading to multiple points of PEG-Mal conjugation during the final phase of ctLNP formulation and conjugation.

SMILES: CC(=O)N[C@H]1C(O)O[C@H](CO)[C@H](O)[C@@H]1O (stereo partly shown) [GalNAc]
- Kd: ~30.7 nM

Source: patent US20250281647A1, “STEALTH LIPID NANOPARTICLE COMPOSITIONS FOR CELL TARGETING” (Generation Bio Co., priority 2023, published 2025)
